In ChEMBL document CHEMBL5465560, “Selectivity Literature for EUbOPEN Chemogenomic Library” (2024):

Key:
[1] = target: Histone-lysine N-methyltransferase SUV39H2 (Homo sapiens) (UniProt Q9H5I1); settings: at 10 µM
[2] = target: Platelet-derived growth factor receptor alpha (Homo sapiens, UniProt P16234); assay: Selectivity interaction (KinomeScan (DiscoverX)) EUB0001079a PDGFRA; settings: at 1 µM
[3] = target: Serine/threonine-protein kinase PAK 4 (Homo sapiens, UniProt O96013); assay: Selectivity interaction (KinomeScan (DiscoverX)) EUB0000666a PAK4; settings: at 10 µM
[4] = target: Tyrosine-protein kinase Lyn (Homo sapiens, UniProt P07948); assay: Selectivity interaction (Millipore kinase profiler) EUB0000124b LYN; settings: at 10 µM
[5] = target: Cyclin-dependent kinase 9 (Homo sapiens, UniProt P50750); assay: Selectivity interaction (KinomeScan (DiscoverX)) EUB0000607a CDK9; settings: at 10 µM
[6] = target: T1, Cyclin-dependent kinase-like 5 (Homo sapiens) (UniProt O76039); assay: Selectivity interaction (KinomeScan (DiscoverX)) EUB0000607a CDKL5; settings: at 10 µM
T1 sequence (whole entry): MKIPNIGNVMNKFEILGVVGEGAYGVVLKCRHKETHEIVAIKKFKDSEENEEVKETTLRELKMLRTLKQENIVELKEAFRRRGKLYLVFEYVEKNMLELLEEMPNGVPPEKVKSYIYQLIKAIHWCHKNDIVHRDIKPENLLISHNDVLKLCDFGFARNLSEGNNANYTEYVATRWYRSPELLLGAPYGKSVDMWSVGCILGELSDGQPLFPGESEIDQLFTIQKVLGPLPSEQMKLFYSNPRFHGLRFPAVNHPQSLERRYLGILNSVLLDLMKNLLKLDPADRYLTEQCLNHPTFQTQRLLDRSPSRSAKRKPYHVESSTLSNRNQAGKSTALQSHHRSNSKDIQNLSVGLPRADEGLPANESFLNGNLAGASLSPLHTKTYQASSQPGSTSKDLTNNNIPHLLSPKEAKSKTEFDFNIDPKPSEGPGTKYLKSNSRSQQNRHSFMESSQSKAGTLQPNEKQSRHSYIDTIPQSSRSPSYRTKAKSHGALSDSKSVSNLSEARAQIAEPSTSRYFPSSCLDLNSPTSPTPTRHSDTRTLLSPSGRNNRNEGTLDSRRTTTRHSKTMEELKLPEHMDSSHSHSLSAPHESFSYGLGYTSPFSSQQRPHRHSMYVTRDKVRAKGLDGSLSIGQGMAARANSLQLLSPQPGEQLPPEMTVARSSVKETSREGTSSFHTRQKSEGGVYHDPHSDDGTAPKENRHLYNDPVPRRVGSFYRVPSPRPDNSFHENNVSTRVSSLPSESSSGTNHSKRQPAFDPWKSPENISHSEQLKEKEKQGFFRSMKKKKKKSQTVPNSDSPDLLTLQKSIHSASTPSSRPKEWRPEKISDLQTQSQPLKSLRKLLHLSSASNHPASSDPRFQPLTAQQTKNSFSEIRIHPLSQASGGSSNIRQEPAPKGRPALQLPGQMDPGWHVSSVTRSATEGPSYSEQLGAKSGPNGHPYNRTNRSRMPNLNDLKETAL

[7] = target: T2, Dual specificity protein kinase TTK (Homo sapiens) (UniProt P33981); assay: Selectivity interaction (KinomeScan (DiscoverX)) EUB0000618a TTK; settings: at 10 µM
T2 sequence (whole entry): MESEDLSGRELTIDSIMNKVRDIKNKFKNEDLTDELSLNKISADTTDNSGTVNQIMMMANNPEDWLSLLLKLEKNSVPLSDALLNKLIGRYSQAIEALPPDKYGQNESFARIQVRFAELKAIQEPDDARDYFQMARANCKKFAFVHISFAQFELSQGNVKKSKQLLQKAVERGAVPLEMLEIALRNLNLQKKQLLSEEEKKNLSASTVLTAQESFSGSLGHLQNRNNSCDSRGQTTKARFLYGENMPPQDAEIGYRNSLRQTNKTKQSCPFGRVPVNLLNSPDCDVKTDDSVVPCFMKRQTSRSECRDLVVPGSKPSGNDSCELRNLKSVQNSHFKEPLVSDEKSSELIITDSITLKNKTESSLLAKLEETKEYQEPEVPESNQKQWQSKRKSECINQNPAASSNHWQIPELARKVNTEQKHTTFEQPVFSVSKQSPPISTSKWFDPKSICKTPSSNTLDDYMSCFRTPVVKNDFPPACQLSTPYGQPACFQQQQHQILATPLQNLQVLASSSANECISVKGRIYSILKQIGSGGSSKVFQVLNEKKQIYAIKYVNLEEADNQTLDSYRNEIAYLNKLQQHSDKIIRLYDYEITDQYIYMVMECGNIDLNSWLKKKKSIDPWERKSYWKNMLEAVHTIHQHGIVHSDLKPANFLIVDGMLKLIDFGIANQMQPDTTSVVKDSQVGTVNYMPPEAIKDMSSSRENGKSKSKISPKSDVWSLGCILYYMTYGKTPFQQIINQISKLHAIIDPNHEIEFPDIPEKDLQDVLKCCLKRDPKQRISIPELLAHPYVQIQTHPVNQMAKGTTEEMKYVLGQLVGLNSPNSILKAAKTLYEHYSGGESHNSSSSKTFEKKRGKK

[8] = target: T3, Serine/threonine-protein kinase tousled-like 1 (Homo sapiens) (UniProt Q9UKI8); assay: Selectivity interaction (Ambit KINOMEscan and KiNATiv profiling in Jurkat cells) EUB0000090b TLK1; format: cell-based; settings: at 1 µM
T3 sequence (whole entry): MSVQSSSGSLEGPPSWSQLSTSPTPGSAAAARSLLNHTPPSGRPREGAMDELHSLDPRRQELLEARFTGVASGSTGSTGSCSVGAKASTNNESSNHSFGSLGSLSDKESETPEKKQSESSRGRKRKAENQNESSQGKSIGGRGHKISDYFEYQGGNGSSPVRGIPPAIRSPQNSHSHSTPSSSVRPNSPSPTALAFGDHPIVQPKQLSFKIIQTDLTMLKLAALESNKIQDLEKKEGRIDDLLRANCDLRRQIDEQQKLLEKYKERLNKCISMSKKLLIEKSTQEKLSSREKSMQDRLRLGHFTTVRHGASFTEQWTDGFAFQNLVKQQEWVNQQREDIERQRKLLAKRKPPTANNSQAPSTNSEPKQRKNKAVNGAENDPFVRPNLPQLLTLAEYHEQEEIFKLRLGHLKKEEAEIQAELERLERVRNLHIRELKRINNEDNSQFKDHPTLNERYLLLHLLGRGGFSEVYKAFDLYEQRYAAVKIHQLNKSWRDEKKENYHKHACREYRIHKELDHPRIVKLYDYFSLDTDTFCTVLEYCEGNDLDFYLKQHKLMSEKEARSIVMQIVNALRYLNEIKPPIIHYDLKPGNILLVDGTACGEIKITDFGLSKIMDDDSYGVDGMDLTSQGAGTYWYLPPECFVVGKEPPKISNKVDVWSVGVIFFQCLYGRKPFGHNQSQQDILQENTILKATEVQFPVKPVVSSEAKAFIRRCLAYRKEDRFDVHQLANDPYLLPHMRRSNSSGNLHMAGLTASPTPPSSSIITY

Sequence of Tyrosine-protein kinase Lyn (P07948 2-512 limits assumed): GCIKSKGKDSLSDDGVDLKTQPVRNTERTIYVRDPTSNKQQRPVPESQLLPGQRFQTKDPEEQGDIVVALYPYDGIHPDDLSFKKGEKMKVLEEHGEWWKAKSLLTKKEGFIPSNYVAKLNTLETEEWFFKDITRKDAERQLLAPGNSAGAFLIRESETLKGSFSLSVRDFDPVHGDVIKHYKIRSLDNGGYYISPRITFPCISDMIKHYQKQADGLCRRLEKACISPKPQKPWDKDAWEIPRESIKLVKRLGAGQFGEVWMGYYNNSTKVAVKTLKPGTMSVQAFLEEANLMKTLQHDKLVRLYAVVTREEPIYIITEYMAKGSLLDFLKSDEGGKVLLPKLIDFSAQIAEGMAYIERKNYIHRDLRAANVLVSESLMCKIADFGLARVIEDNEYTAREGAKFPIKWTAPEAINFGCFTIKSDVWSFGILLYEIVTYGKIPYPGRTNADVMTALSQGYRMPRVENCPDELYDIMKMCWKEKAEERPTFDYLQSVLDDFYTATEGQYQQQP
Sequence of Serine/threonine-protein kinase PAK 4 (O96013 whole entry, looked up): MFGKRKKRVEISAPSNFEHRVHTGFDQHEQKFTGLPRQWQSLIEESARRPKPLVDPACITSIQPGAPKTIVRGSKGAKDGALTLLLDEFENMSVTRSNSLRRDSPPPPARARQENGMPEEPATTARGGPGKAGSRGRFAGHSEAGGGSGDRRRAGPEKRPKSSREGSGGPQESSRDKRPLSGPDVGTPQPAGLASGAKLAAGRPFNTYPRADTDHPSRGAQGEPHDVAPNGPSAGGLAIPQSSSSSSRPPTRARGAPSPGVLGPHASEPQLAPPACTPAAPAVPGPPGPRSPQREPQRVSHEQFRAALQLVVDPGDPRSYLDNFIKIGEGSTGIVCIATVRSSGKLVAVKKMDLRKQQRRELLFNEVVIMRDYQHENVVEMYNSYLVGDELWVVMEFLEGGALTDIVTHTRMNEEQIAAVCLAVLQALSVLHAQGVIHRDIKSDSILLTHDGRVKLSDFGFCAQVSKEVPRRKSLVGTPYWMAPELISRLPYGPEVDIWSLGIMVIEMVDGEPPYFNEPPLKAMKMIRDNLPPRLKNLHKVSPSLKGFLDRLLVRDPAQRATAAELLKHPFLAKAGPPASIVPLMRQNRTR
Sequence of Platelet-derived growth factor receptor alpha (P16234 whole entry): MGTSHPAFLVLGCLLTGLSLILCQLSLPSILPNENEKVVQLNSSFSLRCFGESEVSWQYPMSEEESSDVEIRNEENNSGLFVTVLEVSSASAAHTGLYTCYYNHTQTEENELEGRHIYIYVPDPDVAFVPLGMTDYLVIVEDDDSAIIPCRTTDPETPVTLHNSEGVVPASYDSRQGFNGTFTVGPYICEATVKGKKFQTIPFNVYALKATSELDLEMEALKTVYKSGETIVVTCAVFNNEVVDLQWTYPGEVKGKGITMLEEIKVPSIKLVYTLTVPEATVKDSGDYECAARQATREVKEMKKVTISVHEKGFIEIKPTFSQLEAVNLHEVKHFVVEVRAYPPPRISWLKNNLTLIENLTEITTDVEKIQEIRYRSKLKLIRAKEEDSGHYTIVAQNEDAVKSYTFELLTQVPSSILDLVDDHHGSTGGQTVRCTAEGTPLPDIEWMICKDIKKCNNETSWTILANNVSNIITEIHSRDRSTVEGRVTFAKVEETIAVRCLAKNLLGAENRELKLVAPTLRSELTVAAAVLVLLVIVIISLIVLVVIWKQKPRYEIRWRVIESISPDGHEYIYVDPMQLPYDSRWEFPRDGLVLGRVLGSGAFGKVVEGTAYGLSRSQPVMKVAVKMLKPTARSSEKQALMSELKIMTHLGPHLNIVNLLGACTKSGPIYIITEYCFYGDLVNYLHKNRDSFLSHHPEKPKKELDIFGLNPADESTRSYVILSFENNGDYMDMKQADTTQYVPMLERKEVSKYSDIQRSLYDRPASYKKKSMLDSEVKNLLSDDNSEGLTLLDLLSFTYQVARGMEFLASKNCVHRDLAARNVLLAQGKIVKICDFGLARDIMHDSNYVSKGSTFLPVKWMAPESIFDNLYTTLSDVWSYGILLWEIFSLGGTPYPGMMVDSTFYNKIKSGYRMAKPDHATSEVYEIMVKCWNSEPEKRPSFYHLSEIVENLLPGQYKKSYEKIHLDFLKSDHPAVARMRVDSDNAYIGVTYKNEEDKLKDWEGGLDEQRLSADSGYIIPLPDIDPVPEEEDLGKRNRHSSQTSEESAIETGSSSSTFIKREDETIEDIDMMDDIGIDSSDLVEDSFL
Sequence of Histone-lysine N-methyltransferase SUV39H2 (Homo sapiens) (Q9H5I1 whole entry): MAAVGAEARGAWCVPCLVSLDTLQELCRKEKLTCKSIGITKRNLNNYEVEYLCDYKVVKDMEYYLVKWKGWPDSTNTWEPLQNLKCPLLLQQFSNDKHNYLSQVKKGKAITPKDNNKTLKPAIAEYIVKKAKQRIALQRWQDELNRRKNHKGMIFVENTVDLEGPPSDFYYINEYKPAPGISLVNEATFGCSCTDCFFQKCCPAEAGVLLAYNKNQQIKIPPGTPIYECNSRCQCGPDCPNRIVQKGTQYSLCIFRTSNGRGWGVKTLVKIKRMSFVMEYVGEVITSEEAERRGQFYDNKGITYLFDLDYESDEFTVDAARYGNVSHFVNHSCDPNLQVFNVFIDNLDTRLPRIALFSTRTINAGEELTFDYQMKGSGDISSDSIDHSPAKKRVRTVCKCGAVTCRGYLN
Sequence of Cyclin-dependent kinase 9 (P50750 whole entry): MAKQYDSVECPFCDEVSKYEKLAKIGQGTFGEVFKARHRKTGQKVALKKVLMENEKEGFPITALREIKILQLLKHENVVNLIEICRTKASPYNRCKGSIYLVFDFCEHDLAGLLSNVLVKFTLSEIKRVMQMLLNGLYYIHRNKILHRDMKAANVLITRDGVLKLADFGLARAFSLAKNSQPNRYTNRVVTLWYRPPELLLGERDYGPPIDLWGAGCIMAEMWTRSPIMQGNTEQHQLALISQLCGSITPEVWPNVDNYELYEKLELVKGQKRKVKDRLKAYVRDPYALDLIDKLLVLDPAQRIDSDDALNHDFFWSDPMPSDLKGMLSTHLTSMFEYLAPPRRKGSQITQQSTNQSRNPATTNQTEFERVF

CNCCN1CCC(c2cc(CN(C)C(=O)c3cccc(Oc4ccccc4)c3)ccn2)CC1
% activity [1]: > 90%

Nc1cnc(N2CCc3cc(S(=O)(=O)Nc4c(F)cc(Cl)cc4F)cc(N4CCCC4=O)c32)nc1 [TP-020n]
% of control [2]: 89%

O=C(NOC[C@H](O)CO)c1ccc(F)c(F)c1Nc1ccc(I)cc1F
% of control [3]: 100%

CC(=O)Nc1cccc(-n2c(=O)n(C3CC3)c(=O)c3c(Nc4ccc(I)cc4F)n(C)c(=O)c(C)c32)c1
% of control [4]: 95%

CNC(=O)Nc1ccc(-c2nc(N3CC4CCC(C3)O4)c3cnn(C4CCC5(CC4)OCCO5)c3n2)cc1
% of control [5]: 100%
% of control [6]: 79%

O[C@H]1CC[C@H](Nc2ncc3nc(Nc4c(F)cc(F)cc4F)n([C@H]4CCOC4)c3n2)CC1
% of control [7]: 85%

CN(C)C/C=C/C(=O)Nc1ccc(C(=O)N2CCCC(Nc3ncc(Cl)c(-c4c[nH]c5ccccc45)n3)C2)cc1 (stereo not drawn)
% of control [8]: 92%
